The subject of test [1] is PARP. Description: Western blot for PARP in TGF-β-stimulated iFECD. It is filed as cell-based, human. The following applies: 0.1, 1, 10 μM. As to the method:
[…] were seeded on a 12-well plate at a ratio of 8×10^4 cells per well, and cultured at 37° C. (5% CO2) for 24 hours. DMEM+10% FBS+1% P/S was used as the medium. After 24 hours, the medium was removed. EW-7197 (Selleck Chemicals, 57530) was added so that the final concentration would be 0.1, 1, or 10 μM, and SB431542 (WAKO, 192-16541) was added so that the final concentration would be 10 μM, and the medium was cultured for 24 hours. DMEM+2% FBS+1% P/S was used as the medium. After 24 hours, the medium was removed and cultured […] so that the final concentration of 10 ng/ml of Transforming Growth Factor-132 Human recombinant (WAKO, 200-19911) and […] would be 0.1, 1, and 10 μM, and that of SB431542 would be 10 μM. DMEM+2% FBS+1% P/S was used as the medium. After 24 hours, the cell morphology and apoptosis were observed under a phase contrast microscope. To retrieve floating and dead cells, the medium was retrieved on ice, cells were washed twice with 1×PBS(-) and the solution thereof was also retrieved. The solution was centrifuged for 5 min at 4° C. and 800 g and the supernatant was discarded to obtain a precipitate. […] The detected band intensities were analyzed with Lumino Image Analyzer LAS-4000 mini (Fuji Film) and ImageQuantTM software (GE Healthcare).

The subject of test [2] is fibronectin. Description: Area of fibronectin expression by immunostaining, Col8a2 knock-in mice (Example 5). The format is in vivo. To be noted: 0.02% eye drop, 8 weeks. As to the method: 5 μL of 0.02% (about 0.5 mM) EW-7197 eye drop or a base agent (7% DMSO containing PBS) was administered as an eye drop to both eyes of 4-month-old alpha 2 collagen 8 gene (Col8a2) knock-in mice 4 times a day for 8 weeks. The corneal endothelial cell density was measured using a specular microscope KS3M (Konan Medical, Inc.) at before eye drops, and 2, 4, 6, and 8 weeks after eye drops. Mice were euthanized by intraperitoneally administering an excessive amount (200 mg/kg body weight or greater) of anesthetic injection Somnopentyl (Kyoritsu Seiyaku Corporation) 8 weeks after injection. After confirming cardiac arrest, both eye balls were harvested. The harvested eye balls were incised to prepare a corneal fragment. Immunostaining of type I collagen and fibronectin was performed as follows. Image-Pro (Nippon Roper K.K.) was used to analyze the area of type I collagen and fibronectin expression.
(§1) After immobilizing a mouse corneal fragment for 10 minutes at room temperature in 4% paraformaldehyde, 0.5% TritonX-100 was added and allowed to permeate for 5 minutes. 1% bovine serum albumin (BSA) was added and the fragment was incubated for 1 hour at room temperature. The corneal fragment was then immersed in a primary antibody solution and reacted overnight at 4° C. […]

Test [3] concerns fibronectin. Put plainly: Area of fibronectin expression by immunostaining, Col8a2 knock-in mice (Example 6). It is filed as in vivo. As to the method:
5 μL of 0.02% (about 0.5 mM) EW-7197 eye drop, 0.1% (about 2.5 mM) EW-7197 eye drop, or a base agent (DMSO containing phosphate buffer) was administered as an eye drop to both eyes of 4-month-old alpha 2 collagen 8 gene (Col8a2) knock-in mice 4 times a day for 12 weeks. A surfactant was added to the base agent as needed. Those skilled in the art can use an appropriate and suitable surfactant (Kenji Motose (1984). “Tenganzai” [Eye drops] Nanzando; International Pharmaceutical Excipients Council Japan (2016). “Iyakuhin Tenkabutsu Jiten” [Pharmaceutical Excipient Encyclopedia] Yakuji Nippo, Limited). The corneal endothelial cell density was measured using a specular microscope KS3M (Konan Medical, Inc.) at before eye drops, and 3, 6, 9, and 12 weeks after eye drops. Mice were euthanized by intraperitoneally administering an excessive amount (200 mg/kg body weight or greater) of anesthetic injection Somnopentyl (Kyoritsu Seiyaku Corporation) 12 weeks after injection. After confirming cardiac arrest, both eye balls were harvested. The harvested eye balls were incised to prepare a corneal fragment. Immunostaining of fibronectin was performed. The immunostaining method was the following. Image-Pro (Nippon Roper K.K.) was used to analyze the area of fibronectin expression.
as §1, with “C. 1:250 diluent of fibronectin polyclonal antibody (abcam) was used as the primary antibody. Next, the corneal fragment was immersed in a mixture of a secondary antibody solution and DAPI solution (Dojindo Laboratories) and reacted for 1 hour at room temperature away from light. 1:2000 diluent of Alexa Fluor® 488-labeled goat anti-rabbit IgG (Life Technologies) was used as the secondary antibody. 1:1000 diluent of DAPI solution was used.” for “C.”

Molecules are shown by their SMILES.

As to `Cc1cccc(-c2[nH]c(CNc3ccccc3F)nc2-c2ccc3ncnn3c2)n1` [EW-7197, N-((4-([1,2,4]triazolo[1,5-a]pyridin-6-yl)-5-(6-methylpyridin-2-yl)-1H-imidazol-2-yl)methyl)-2-fluoroaniline], the “PARP (about 89 kDa)” value in test [1] is “suppressed to the same degree as the control group without stimulation with TGF-β or 10 μM of SB431542”. In addition, the “area of fibronectin expression compared to the base agent group” value in test [2] was “decreasing trend”. Further, the fibronectin expression result in test [3] (0.004% (0.1 mM) eye drop) is listed as “tendency of suppressing fibronectin expression”; in test [3] (0.02% eye drop, 12 weeks) it was “clear suppression of fibronectin expression”; in test [3] (0.1% eye drop, 12 weeks), “clear suppression of fibronectin expression”.

The values are drawn from patent publication US11857544B2, “Composition or method including (t)ew-7197 for treating or preventing corneal endothelial diseases” (THE DOSHISHA, priority 2017, dated 2024).
